# Literature values, collected in patent US20090285869A1, “SALT STABLE LECITHIN ORGANOGEL COMPOSITION” (Humco Holding Group, Inc., priority 2008, published 2009).
# Settings: non-ionic O/W and W/O emulsifiers; scale from 0 to 20
row,Approximate HLB value,Molecule
1,~4.0,Glyceryl Dilaurate
2,~15.5,Oleth-20
3,~10.0,Ceteareth-6
4,~13.4,Ceteareth-12
5,~15.7,Ceteareth-20
6,~16.2,Ceteareth-25
7,~9.0,Oleth-5

# Further lines, the molecule ahead of its results:
row,Molecule,Approximate HLB value
1,CCCCCCCCCCCCCCCCCC(=O)OCC(O)CO (stereo not drawn) [Glyceryl Stearate],~4.0
2,Oleth-10,~12.4
3,CCCCCCCC/C=C\CCCCCCCC(=O)OCC(O)CO (stereo not drawn) [Glyceryl Oleate],~2.8
4,CCCCCCCCCCCC(=O)OCC(O)CO (stereo not drawn) [Glyceryl Laurate],~5.2
5,CCCCCC[C@@H](O)C/C=C\CCCCCCCC(=O)OCC(O)CO (stereo partly drawn) [Glyceryl Ricinoleate],~2.6
